Data reported in article PMC9748837 (Chemico-Biological Interactions, 2021).

Key:
OATP1B1 = target: T1, OATP1B1 (Homo sapiens, UniProt Q9Y6L6); type: cell-based; conditions: hek-oatp1b1 cells
T1 sequence (Q9Y6L6 1-691): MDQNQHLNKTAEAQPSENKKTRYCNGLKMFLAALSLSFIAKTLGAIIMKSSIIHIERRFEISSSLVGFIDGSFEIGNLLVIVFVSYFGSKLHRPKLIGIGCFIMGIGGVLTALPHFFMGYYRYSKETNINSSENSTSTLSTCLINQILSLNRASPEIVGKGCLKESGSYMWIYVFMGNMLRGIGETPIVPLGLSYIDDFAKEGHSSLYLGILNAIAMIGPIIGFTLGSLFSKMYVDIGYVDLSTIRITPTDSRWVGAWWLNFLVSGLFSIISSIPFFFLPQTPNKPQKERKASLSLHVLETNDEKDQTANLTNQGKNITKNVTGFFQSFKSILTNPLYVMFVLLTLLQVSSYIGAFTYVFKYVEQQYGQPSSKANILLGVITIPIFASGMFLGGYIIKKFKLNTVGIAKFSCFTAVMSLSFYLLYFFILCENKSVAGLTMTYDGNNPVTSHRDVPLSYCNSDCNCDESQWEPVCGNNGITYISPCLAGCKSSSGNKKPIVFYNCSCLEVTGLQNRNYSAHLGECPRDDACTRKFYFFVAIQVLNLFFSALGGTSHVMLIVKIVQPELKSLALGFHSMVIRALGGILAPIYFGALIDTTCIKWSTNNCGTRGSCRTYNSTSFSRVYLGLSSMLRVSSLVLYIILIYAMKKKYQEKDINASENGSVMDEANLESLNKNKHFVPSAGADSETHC

OATP2B1 = target: T2, OATP2B1 (Homo sapiens, UniProt O94956); type: cell-based
T2 sequence (O94956 1-709): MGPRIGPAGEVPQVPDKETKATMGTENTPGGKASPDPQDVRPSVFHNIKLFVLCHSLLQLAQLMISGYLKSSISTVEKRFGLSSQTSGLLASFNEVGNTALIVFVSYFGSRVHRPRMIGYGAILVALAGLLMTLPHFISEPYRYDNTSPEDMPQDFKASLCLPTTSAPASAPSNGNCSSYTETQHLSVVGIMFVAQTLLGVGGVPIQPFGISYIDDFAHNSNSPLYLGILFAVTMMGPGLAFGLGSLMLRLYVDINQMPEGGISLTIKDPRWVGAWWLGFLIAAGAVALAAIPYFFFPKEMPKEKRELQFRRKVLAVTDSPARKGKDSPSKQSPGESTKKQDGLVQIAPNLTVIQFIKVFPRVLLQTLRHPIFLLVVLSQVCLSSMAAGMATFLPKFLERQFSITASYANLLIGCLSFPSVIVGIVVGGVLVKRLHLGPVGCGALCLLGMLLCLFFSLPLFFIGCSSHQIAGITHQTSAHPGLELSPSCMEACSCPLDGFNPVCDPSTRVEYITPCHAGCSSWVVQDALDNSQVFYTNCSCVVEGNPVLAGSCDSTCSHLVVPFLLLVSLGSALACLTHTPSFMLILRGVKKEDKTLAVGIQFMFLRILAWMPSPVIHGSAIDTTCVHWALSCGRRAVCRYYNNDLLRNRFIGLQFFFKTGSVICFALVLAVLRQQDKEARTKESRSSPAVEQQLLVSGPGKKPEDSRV

inhibition at 100 µM (OATP1B1): ~50%
IC50 (OATP2B1): 11.1 ± 3.3 µM
Compound: N=C(N)Nc1ccc(C(=O)Oc2ccc(CC(=O)O)cc2)cc1 [GBPA, 4-(4-guanidinobenzoyloxy)phenylacetic acid]
